Read-outs that look alike come from different tables or passages of the source.
How the values were obtained:
[1] = system: Hyaloperonospora arabidopsidis (Hpa) isolate Noco2; test: Arabidopsis thaliana resistance to Hpa after Pip/NHP pre-treatment (symptoms, Trypan blue microscopy); assay type: in vivo; settings: for symptomology of leaves (photographs): 7 days after inoculation; for disease development in the SA-deficient mutant: sid2 mutant
[2] = system: Pseudomonas syringae pv maculicola ES4326 (Psm lux); assay type: in vivo
[3] = system: Pseudomonas syringae pv. tabaci (DSM 1856); test: Tobacco (Nicotiana tabacum cv Xanthi) resistance to Pseudomonas tabaci after soil-applied Pip/NHP; settings: for disease symptoms (yellowing and wilting) of infiltrated 1° leaves: tobacco 4-leaf stage, 40 ml of 1 mM (40 μmol) via soil 1 d prior to inoculation, 48 h after infection
Procedure: Plant pots with tobacco at the 4-leaf stage (BBCH growth stage 1004) were supplied with either 40 ml of H2O (mock-treatment; left) or 40 ml of 1 mM Pip or NHP (=40 μmol) 1 d prior to inoculation with a suspension (OD600=0.005, O/N-culture grown at 18° C.) of Pseudomonas tabaci via pressure infiltration. […] Infiltrated 1° leaves from representative plants were cut and photographed 48 h after the initial infection.

[4] = 1° leaves pressure-infiltrated with 1 mM NHP 24 h before inoculation

**Q.** Which results are given for O=C(O)C1CCCCN1O (stereo not shown) [NHP, 1-hydroxypiperidine-2-carboxylic acid]?
**A.** Resistance effect after NHP pre-treatment ([1]; Arabidopsis thaliana, Hyaloperonospora arabidopsidis): Yes; symptomology of leaves (photographs) ([1]; Col-0, ald1, and fmo1, 10 μmol via soil): completely symptom-free; development of oospores ([1]; Col-0, 10 μmol via soil, 7 dpi): completely inhibited; examined leaves that fully prohibited the formation of intercellular hyphae ([1]; Col-0, 10 μmol via soil, 7 dpi): About 70%; macroscopic mildew symptoms ([1]; Col-0, 10 μmol via soil, 7 dpi): completely free of mildew symptoms; occurrence/development of conidiophores on leaves ([1]; Col-0, 10 μmol via soil, 7 dpi): completely inhibited; disease development in the SA-deficient mutant ([1]; 10 μmol via soil): not able to fully prevent disease development; reduction of bacterial numbers, 2° leaves inoculated (systemic) [2, 4]: more than 15 fold; reduction of bacterial numbers, Psm lux infiltrated in the pre-treated 1° leaves (local) [2, 4]: about 8 fold; Resistance effect after NHP pre-treatment ([2]; Arabidopsis thaliana, Pseudomonas syringae): Yes; attenuation of Psm lux growth ([2]; Col-0, ald1, and fmo1 (all genotypes), 10 μmol via soil 1 d before inoculation, 60 hpi): at least one order of magnitude; chlorotic symptom development ([2]; Col-0, ald1, and fmo1, 10 μmol via soil, 72 hpi): lack of the chlorotic symptom development; reduction in bacterial numbers compared to mock-treated plants ([2]; Col-0, 10 μmol NHP via soil 1 day before infection, 54 h post inoculation): about 9 fold; reduction in bacterial numbers compared to mock-treated plants ([2]; Col-0, 10 μmol NHP via soil 3 days before infection, 54 h post inoculation): about 6 fold; reduction in bacterial numbers compared to mock-treated plants ([2]; Col-0, 10 μmol NHP via soil 7 days before infection, 54 h post inoculation): about 3 fold; further reduction of bacterial growth compared to plants treated with 10 μmol of NHP ([2]; Col-0, 100 μmol NHP per pot via soil, 54 h post inoculation): 2 fold; reduction of bacterial numbers compared to control plants ([2]; Col-0, 0.1 mM NHP (1 μmol/pot) via soil 24 h prior to Psm lux, 54 h post inoculation): about 2 fold; reduction of bacterial numbers compared to mock-treated plants ([2]; Col-0, 10 mM NHP (100 μmol per pot) via soil 24 h prior to Psm lux, 54 h post inoculation): about 20 fold; lower levels of bacteria in leaves compared to control plants ([2]; Col-0, 10 ml of 1 mM NHP (10 μmol per pot) via soil 24 h prior to Psm lux, 54 h post inoculation): about 11 fold; disease symptoms of leaves ([2]; Col-0, 10 ml of 1 mM NHP via soil 24 h prior to Psm lux): largely symptom-free; reduction of bacterial numbers in Psm lux-inoculated 1° leaves ([2]; Col-0, foliar spray of 1 mM NHP with 0.005% Silwet 24 h before inoculation, 54 h post inoculation): about 12 fold; difference in bacterial numbers between control and treated plants ([2]; Col-0 wild-type (experiment with sid2), 10 μmol via soil, 60 hpi): ten-fold difference; bacterial numbers in leaves lower than those of naive plants ([2]; SA-deficient sid2 mutant, 10 μmol via soil, 60 hpi): about 2.5 fold; Resistance effect after NHP pre-treatment ([3]; Nicotiana tabacum cv. Xanthi, Pseudomonas syringae pv. tabaci (DSM 1856)): Yes; disease symptoms (yellowing and wilting) of infiltrated 1° leaves [3]: almost absent

**Q.** Which results are given for O=C(O)[C@@H]1CCCCN1 [Pip, (S)-piperidine-2-carboxylic acid]?
**A.** average length of intercellular hyphae growing inside leaves ([1]; Col-0, 10 μmol via soil 24 h before Hpa, 7 dpi): about 50 mm cm^−2; development of oospores ([1]; Col-0, 10 μmol via soil, 7 dpi): fully prevented; intercellular hyphae closely encased by dead host cells (trailing necrosis) ([1]; Col-0, 10 μmol via soil, 7 dpi): about 60%; length of intercellular hyphae as share of the value for non-pretreated Col-0 plants ([1]; Col-0, 10 μmol via soil, 7 dpi): ~10%; macroscopic mildew symptoms ([1]; Col-0, 10 μmol via soil, 7 dpi): largely symptom-free; occurrence/development of conidiophores on leaves ([1]; Col-0, 10 μmol via soil, 7 dpi): greatly diminished; symptomology of leaves (photographs) ([1]; Col-0 and ald1, 10 μmol via soil): only sporadically show small areas of visible mildew symptoms; effect on the resistance of fmo1 to Hpa ([1]; fmo1 mutant, 10 μmol via soil): no effect; disease development in the SA-deficient mutant ([1]; 10 μmol via soil): not able to fully prevent disease development; bacterial multiplication in leaves of treated compared with control plants ([2]; Col-0 and ald1, 10 μmol via soil 1 d before Psm lux, 60 hpi): ten-fold lower; chlorotic leaf symptoms ([2]; Col-0 and ald1, 10 μmol via soil, 72 hpi): suppression of the development of chlorotic leaf symptoms; disease symptoms (yellowing and wilting) of infiltrated 1° leaves [3]: severely reduced

— patent US12137687B2, “Method for inducing acquired resistance in a plant” (HEINRICH HEINE UNIVERSITAET DUESSELDORF, priority 2017, dated 2024)
